Organism: Cavia porcellus
Test: Relative contractile potency in guinea pig ileum assay compared to 14,15-dehydro-LTA 4 methyl ester
Format: functional

## CCCCCC#CC\C=C/C=C/C=C/[C@@H](SC[C@H](NC(=O)CC[C@H](N)C(=O)O)C(=O)NCC(=O)O)[C@@H](O)CCCC(=O)O
  Relative contractile potency: 0.9
